pIC50: −log10 of the molar value.
Assays:
[1] = system: U87MG (human glioblastoma astrocytoma); experiment: Cell adhesion assay on matrigel coated wells; format: cell-based; conditions: treated 18-20h
Description: Cell surface, non-integrin molecules such as heparan sulfate proteoglycans (HSPGs) may be involved in the regulation of early adhesive stages of cell-ECM interactions. A cell adhesion assay has been employed to determine if the newly designed heparanase inhibitors were able to interfere with adhesion properties of cancer cells.
For the assay set-up, U87MG (human glioblastoma astrocytoma) cells were treated for 18-20h with test compounds, in complete medium supplemented with 10% FCS. Then, cells were collected, washed in complete medium, and added to matrigel coated wells in triplicate, at previously identified optimal seeding density, and incubated at 37 °C in complete medium for times ranging from 15 minutes to 4h (Goldshmidt et al, FASEB, 2003). After incubation, the wells were washed three times with serum-free medium and the remaining firmly attached cells were stained with crystal violet 0.1 reagent. Optical density was measure at 500 nm by Victor 3 (Perkin-Elmer) plate analyzer. Each experiment was repeated three times.

[2] = system: U2OS (human osteosarcoma); experiment: SRB Cell Cytotoxicity Assay; format: cell-based; conditions: 72h
Excerpt: (§1) SRB Cell Cytotoxicity Assay is based on the quantitative staining of cellular proteins by sulforhodamine B (SRB). This assay can be used for high-throughput drug screening (Vichai & Kirkitara, Nature Protocol. 2006, 1, 112). Sulforhodamine B is an anionic aminoxanthene dye that forms an electrostatic complex with the basic amino acid residues of proteins under moderately acid conditions, which provides a sensitive linear response.
(§2) To assess a putative antiproliferative activity of the selected compounds, HT1080 (human fibrosarcoma), U87MG (human glioblastoma astrocytoma) and U2OS (human osteosarcoma) cell lines were treated for 72h, in triplicate, with increasing concentrations of heparanase inhibitors. Inhibition of cell proliferation was then measured by the classical colorimetric SRB Cell Cytotoxicity assay. Absorbance was measured by spectrophotometer at a wavelength of 510 nm and cell proliferation was determined as percent with respect to control cells (cells treated with the vehicle alone). EC50 values were then determined by GraphPad Prism.
(§3) Results are summarized in the following Table 3, reporting the ability of anti-heparanase agents (test compounds) to reduce tumor growth (cytotoxic effect) on three tumor cell lines, evaluated at three concentrations. Results were expressed as a percentage of growth versus control.

[3] = system: HT1080 (human fibrosarcoma); experiment: SRB Cell Cytotoxicity Assay; format: cell-based; conditions: 72h
Excerpt: as §1, §2, §3

[4] = system: U87MG (human glioblastoma astrocytoma); experiment: SRB Cell Cytotoxicity Assay; format: cell-based; conditions: 72h
Excerpt: as §1, §2, §3

[5] = system: luciferase-labelled CAG myeloma cells; conditions: NOD/SCID mice, 1000 µg/mouse intraperitoneal twice a day from day 9 to day 29; Figure 2
Description: Briefly, luciferase-labelled CAG myeloma cells (5x106; same cells) were injected subcutaneously into NOD/SCID mice (n=5). Mice were treated with compounds (1000 µg/mouse, injected intraperitoneal twice a day, starting on day 9 of cell inoculation).
Mice were injected with cells on day ONE and the first injection of compounds was given starting on day NINE, twice a day, including weekends. Tumor growth was examined by IVIS imaging prior to the first injection of compounds and once a week thereafter. The experiment was terminated on day TWENTYNINE (Figure 2).
IVIS imaging. Bioluminescent imaging of the luciferase-expressing tumors was performed with a highly sensitive, cooled charge coupled device (CCD) camera mounted in a light-tight specimen box (IVIS; Xenogen Corp., Waltham, MA). Briefly, mice were injected intraperitoneally with D-luciferin substrate at 150 mg/kg, anesthetized and placed onto a stage inside the light-tight camera box, with continuous exposure to isoflurane (EZAnesthesia, Palmer, PA). Light emitted from the bioluminescent cells was detected by the IVIS camera system with images quantified for tumor burden using a log-scale color range set at 5×10^4 to 1×10^7 and measurement of total photon counts per second (PPS) using Living Image software (Xenogen).

heparanase = target: T1, heparanase (Homo sapiens, UniProt Q9Y251); experiment: Fondaparinux heparanase assay (AGA*IA assay), colorimetric WST-1; format: biochemical; conditions: 2.5 nM heparanase, 100 µM fondaparinux, pH 5.0, 3 h at 37°C
T1 sequence (Q9Y251 158-543 limits assumed): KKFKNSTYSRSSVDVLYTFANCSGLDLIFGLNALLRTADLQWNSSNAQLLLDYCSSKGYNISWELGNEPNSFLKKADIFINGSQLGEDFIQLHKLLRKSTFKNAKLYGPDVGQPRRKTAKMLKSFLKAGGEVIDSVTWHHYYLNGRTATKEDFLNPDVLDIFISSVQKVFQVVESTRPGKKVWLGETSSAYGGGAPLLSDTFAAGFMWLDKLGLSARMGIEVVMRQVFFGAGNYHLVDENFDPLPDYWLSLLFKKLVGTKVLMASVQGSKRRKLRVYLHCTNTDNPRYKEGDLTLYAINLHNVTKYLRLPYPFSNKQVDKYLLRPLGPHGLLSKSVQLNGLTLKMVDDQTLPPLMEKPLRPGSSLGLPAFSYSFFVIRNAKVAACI
T1 sequence (Q9Y251 36-109 limits assumed): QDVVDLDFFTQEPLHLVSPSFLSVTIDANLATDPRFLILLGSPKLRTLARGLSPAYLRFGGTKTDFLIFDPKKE
Description: In order to determinate their activity as potent heparanase inhibitor, compounds were tested in a simple, accurate and robust microplate assay based on the cleavage of the synthetic heparin fragment, the pentasaccharide Fondaparinux (AGA*IA). This assay was originally developed by Hammond and coworkers [Hammond E, Li CP, Ferro V. Development of a colorimetric assay for heparanase activity suitable for kinetic analysis and inhibitor screening. Anal. Biochem. 2010, 396(1), 112-116], where Fondaparinux corresponds to the methyl glycoside of the antithrombin III (ATIII)-activating pentasaccharide sequence of heparin. Fondaparinux is cleaved by heparanase to generate a reducing disaccharide, which can be quantitatively measured via a colorimetric or a fluorescence assay, the last by the fluorescent sensor polymer-H [Schiemann S, Lühn S, Alban S. Development of both colorimetric and fluorescence heparinase activity assays using fondaparinux as substrate. […]
Assay was carried out with 100 µl/well of assay solution containing 40 mM sodium acetate buffer (pH 5.0), 100 µM fondaparinux, 2.5 nM heparanase and serial dilutions of test compounds (tested in triplicate). […] Then, the absorbance at 560 nm was measured through a microplate reader (Victor 3, Perkin Elmer).
Finally, the measurements were corrected by subtracting both the reagent background and the inner absorbance value of test compound. […]

Row | Substance | Test compounds adhesion versus basal (100%) ([1]; 0.1 µM) [%] | Test compounds adhesion versus basal (100%) ([1]; 1 µM) [%] | Test compounds adhesion versus basal (100%) ([1]; 10 µM) [%] | Percentage tumor growth versus control U2OS ([2]; 11.1 µM) [%] | Percentage tumor growth versus control U2OS ([2]; 33.3 µM) [%] | Percentage tumor growth versus control U2OS ([2]; 100 µM) [%] | Percentage tumor growth versus control HT1080 ([3]; 11.1 µM) | Percentage tumor growth versus control HT1080 ([3]; 33.3 µM) | Percentage tumor growth versus control HT1080 ([3]; 100 µM) [%] | Percentage tumor growth versus control U87MG ([4]; 11.1 µM) [%] | Percentage tumor growth versus control U87MG ([4]; 33.3 µM) [%] | Percentage tumor growth versus control U87MG ([4]; 100 µM) [%] | inhibition of CAG myeloma cell growth [5] | pIC50 (heparanase)
1 | N-desulfated N-acetylated glycol split heparin -(GGGS)3-NH-(CH2)5-NH-Biotin with a substitution degree on the R1 and/or R1' positions of about 7% [SST0761NA1] | 57.55 | 13.25 | 21.46 | 85.3 | 79.5 | 69.3 | 99.98% | 98.83% | 75.02 | 84.47 | 75.00 | 73.23 | reached statistical significance | ~8.52
2 | N-desulfated N-acetylated glycol split heparin -Reducing end-NH-CH2-1,2,3-Triazole-4, N-Glycine-CONH-(CH2)5-NH-Biotin with a substitution degree on the R3 position of about 2 % [SST0764NA1] | 83.21 | 19.82 | 12.79 | 80.70 | 76.00 | 66.90 | ~ 100% | ~ 100% | 95.15 | 90.61 | 86.29 | 76.44 | – | ~8.40

Source: EP3388439A1, “BIOTIN-CONJUGATED N-ACETYL GLYCOL SPLIT HEPARIN” (Leadiant Biosciences SA, priority 2017, dated 2018)
